Measured values published in patent US9308157B2, “Whitening cosmetic” (AJINOMOTO CO., INC., priority 2011, dated 2016).
Several values for one entry are separate records, joined by “and”; a condition that tells them apart may be missing. Equal values may be shown once.

Tests used:
Type in all cases: cell-based
B16 melanoma [1] = experiment: Cell viability rate measurement (Experimental Example 2, cell protein amount); details: for cell viability rate (single): single use, 3 days; for safety when combined as component (B): summary of Table 1, highest grade stated
Experimental: B16 melanoma was cultured in DMEM (Dulbecco's Modified Eagle Medium) (high glucose, containing 10% serum). After confluence, the cells were seeded on a 6 well plate. The next day, each well medium was exchanged with DMEM (300 μM tyrosine added) added with each evaluation sample at a given evaluation concentration (Table 1), and the cells were cultured for 3 days. The medium was recovered, and the cells were rinsed once with PBS (phosphate-buffered saline). A blending solution of 4% aqueous sodium hydroxide solution and dimethyl sulfoxide (9:1) was added to the well, and the mixture was stood at room temperature for 10 min. The cells were dissolved and recovered, and centrifuged at 3500 rpm for 10 min, and the supernatant was diluted 3-fold with milli-Q water. Solution A (DC Protein Assay; BIO RAD, 100 μl) was added to the diluted solution (20 μl) and the mixture was admixed in a vortex. Solution B (DC Protein Assay; BIO RAD, 800 μl) was added and mixed therewith, and the mixture was stood at room temperature for 15 min. After standing, the absorbance (750 nm) was measured by a spectrophotometer. In addition, the analytical curve of albumin was determined, the protein amount of the above-mentioned solution was calculated, and the relative rate was taken as a viability rate.
(§1) The spectrophotometer used in this melanin production suppression test was DU800, manufactured by BECKMAN COULTER.
The cell viability rate of each sample was measured for a single use and combined use, and the effect of the combined use was evaluated by the following criteria using the degree of toxic mitigation.
The degree of toxic mitigation was cell viability rate (%) by combined use of component (A) and component (B)−cell viability rate (%) by single use of component (B).

B16 melanoma [2] = experiment: Melanin production rate measurement (Experimental Example 1, 6 well plate, medium + cell melanin); details: for melanin production suppressive effect / whitening effect when combined as component (B): combined with (A) N-Ac-CP2Et; for melanin production suppressive effect / whitening effect when combined as component (B) / melanin production suppressing effect / whitening effect when combined as component (B): summary of Table 1, highest grade stated; for melanin production suppressing effect / whitening effect when combined as component (B): combined with (A) N-Ac-CP; for activity at 20000 µM: 20 mM; for activity at 22500 µM: 22.5 mM
Experimental: B16 melanoma was cultured in DMEM (Dulbecco's Modified Eagle Medium) (high glucose, containing 10% serum). After confluence, the cells were seeded on a 6 well plate. The next day, each well medium was exchanged with DMEM (300 μM tyrosine added) added with each evaluation sample at a given evaluation concentration (Table 1), and the cells were cultured for 3 days. […] The medium was recovered, and centrifuged at 10000 rpm for 10 min. The absorbance of the supernatant at 450 nm was measured by spectrophotometer. The medium was recovered, and the cells were rinsed once with PBS (phosphate-buffered saline). A blending solution of 4% aqueous sodium hydroxide solution and dimethyl sulfoxide (9:1) was added to the well, and the mixture was stood at room temperature for 10 min. The cells were dissolved and recovered, and centrifuged at 3500 rpm for 10 min. The absorbance (450 nm) of the supernatant was measured by spectrophotometer. The total of the melanin amount in the medium and in the cell was calculated from the analytical curve drawn using synthetic melanin. By setting the calculated value 3 days after addition of each sample at a given concentration as a relative percentage to the calculated value of the control (no sample addition) defined as 100%, the melanin production rate of each sample to the melanin amount in the control as 100% was calculated. When a sample was dissolved dimethyl sulfoxide and then added, a sample containing 0.1% dimethyl sulfoxide was used as a control (no sample addition). The melanin production rate was standardized from the amount of cell protein obtained in Experimental Example 2.
as §1
The melanin production rate of each sample was measured for a single use and combined use, and the effect of the combined use was evaluated by the following criteria using the theoretical value.
The theoretical value was melanin production rate (%) by single use of component (A)×melanin production rate (%) by single use of component (B)/100.

B16 melanoma [3] = experiment: Melanin production rate measurement (Experimental Example 3, 96 well plate, 5-25 mM); details: for IC50: Mus musculus, B16, 72 h, 3 days, samples 5-25 mM, read-out: concentration suppressing melanin production by 50%
Experimental: The cysteine derivatives of Synthetic Example 1 and Synthetic Example 3 were measured for a melanin production rate for comparison of a whitening effect. B16 melanoma was cultured in DMEM (Dulbecco's Modified Eagle Medium) (containing high glucose, serum 10%). After confluence, it was seeded in a 96 well plate. The next day, each well medium was exchanged with DMEM added with each evaluation sample adjusted to 5-25 mM, and the cells were cultured for 3 days. The absorbance at 450 nm was measured by a microplatereader. By setting the measurement value 3 days after addition of each sample at a given concentration as a relative percentage to the measurement value of the control (no sample addition) defined as 100%, the melanin production rate of each sample to the melanin amount in the control as 100% was calculated.
The calculated concentrations of the cysteine derivatives of Synthetic Example 1 and Synthetic Example 3 necessary for suppressing the melanin production rate by 50% are shown in Table 2.
The microplatereader used in this melanin production suppressing test was MULTISKAN FC manufactured by Thermo Fisher Scientific Inc.

[4] = Mus musculus, B16, 72 h, single use, 3 days, control = 100%

## COc1ccc(C(=O)O)c(O)c1 [4-MS, 4-methoxy salicylic acid]
B16 melanoma [1]; 5 mM (0.0084%)
  cell viability rate (single): 87.0%
B16 melanoma [2]; Mus musculus, B16, 72 h, 5 mM (0.0084%), single use, 3 days, control = 100%
  activity at 5000 µM: 100%
B16 melanoma [2]
  melanin production suppressive effect / whitening effect when combined as component (B): extremely remarkably improved

## N[C@@H](CCC(=O)N[C@@H](CS)C(=O)NCC(=O)O)C(=O)O [GSH, glutathione (reduced type)]
B16 melanoma [1]; 0.5 mM
  cell viability rate (single): 94.4%
B16 melanoma [1]; 2 mM
  cell viability rate (single): 67.8%
B16 melanoma [1]; combined with (A) N-Ac-CP2Et
  safety when combined as component (B): remarkably improved
B16 melanoma [1]; combined with (A) N-Ac-CP
  safety when combined as component (B): remarkably improved
B16 melanoma [2]; Mus musculus, B16, 72 h, 0.5 mM, single use, 3 days, control = 100%
  activity at 500 µM: 100%
B16 melanoma [2]; Mus musculus, B16, 72 h, 2 mM, single use, 3 days, control = 100%
  activity at 2000 µM: 100%
B16 melanoma [2]
  melanin production suppressive effect / whitening effect when combined as component (B): improved
  melanin production suppressing effect / whitening effect when combined as component (B): extremely remarkably improved

## CCOC(=O)C1(C)SCC(C(=O)O)N1C(C)=O (stereo not shown) [N—Ac-CP2Et, N-acetyl-2-methylthiazolidine-2,4-dicarboxylic acid 2-ethyl ester]
B16 melanoma [3]
  IC50: 18.9 mM
B16 melanoma [1]; 15 mM
  cell viability rate (single): 105.7%
B16 melanoma [1]; 20 mM
  cell viability rate (single): 101.5%
B16 melanoma [1]; 22.5 mM
  cell viability rate (single): 98.6%
B16 melanoma [2]; Mus musculus, B16, 72 h, 15 mM, single use, 3 days, control = 100%
  activity at 15000 µM: 92.2%
B16 melanoma [2]; [4]
  activity at 20000 µM: 62%
  activity at 22500 µM: 48.6%

## CC(=O)N1C(C(=O)O)CSC1(C)C(=O)O (stereo not shown) [N—Ac-CP, N-acetyl-2-methylthiazolidine-2,4-dicarboxylic acid]
B16 melanoma [1]; 20 mM
  cell viability rate (single): 95.6%
B16 melanoma [1]; 22.5 mM
  cell viability rate (single): 100.6%
B16 melanoma [1]; 25 mM
  cell viability rate (single): 97.8%
B16 melanoma [2]; [4]
  activity at 20000 µM: 59.4%
  activity at 22500 µM: 45.1%
B16 melanoma [2]; Mus musculus, B16, 72 h, 25 mM, single use, 3 days, control = 100%
  activity at 25000 µM: 35.3%

## CCOC(=O)[C@]1(C)SC[C@@H](C(=O)O)N1C(C)=O [Synthetic Example 3, (2S,4R)-N-acetyl-2-methylthiazolidine-2,4-dicarboxylic acid 2-ethyl ester]
B16 melanoma [3]
  IC50: 16.6 mM
B16 melanoma [3]; from Table 2
  melanin production suppressing effect compared with Synthetic Example 1: stronger

## OC[C@H]1O[C@@H](Oc2ccc(O)cc2)[C@H](O)[C@@H](O)[C@@H]1O [arbutin]
B16 melanoma [1]; 0.5 mM
  cell viability rate (single): 85.5% and 96.5%
B16 melanoma [1]; combined with (A) N-Ac-CP2Et
  safety when combined as component (B): improved
B16 melanoma [1]; combined with (A) N-Ac-CP
  safety when combined as component (B): improved
B16 melanoma [2]
  melanin production suppressive effect / whitening effect when combined as component (B): extremely remarkably improved
  melanin production suppressing effect / whitening effect when combined as component (B): improved

## CCCCCCCCCCCCCCCCOC1=C(O)C(=O)O[C@@H]1[C@@H](O)CO [cetyl ascorbyl ether, 3-o-cetyl ascorbyl ether]
B16 melanoma [1]; 30 μM
  cell viability rate (single): 75.8%
B16 melanoma [2]; 30 μM, single use, 3 days, control = 100%
  Melanin production rate (single): 72.8% and 67.6%
B16 melanoma [2]
  melanin production suppressive effect / whitening effect when combined as component (B): remarkably improved
  melanin production suppressing effect / whitening effect when combined as component (B): remarkably improved

## O=c1oc2c(O)c(O)cc3c(=O)oc4c(O)c(O)cc1c4c23 [ellagic acid]
B16 melanoma [1]; 6 μM
  cell viability rate (single): 96.1%
B16 melanoma [1]; combined with (A) N-Ac-CP2Et
  safety when combined as component (B): extremely remarkably improved
B16 melanoma [2]; Mus musculus, B16, 72 h, 6 μM, single use, 3 days, control = 100%
  activity at 6 µM: 100%
B16 melanoma [2]
  melanin production suppressive effect / whitening effect when combined as component (B): improved

## O=c1cc(CO)occ1O [kojic acid]
B16 melanoma [1]; 0.25 mM
  cell viability rate (single): 99.1%
B16 melanoma [1]; combined with (A) N-Ac-CP2Et
  safety when combined as component (B): extremely remarkably improved
B16 melanoma [2]; Mus musculus, B16, 72 h, 0.25 mM, single use, 3 days, control = 100%
  activity at 250 µM: 66%
B16 melanoma [2]
  melanin production suppressive effect / whitening effect when combined as component (B): extremely remarkably improved

## CCCCC/C=C\C/C=C\CCCCCCCC(=O)O [linoleic acid]
B16 melanoma [1]; 75 μM
  cell viability rate (single): 105.2%
B16 melanoma [1]; combined with (A) N-Ac-CP2Et
  safety when combined as component (B): remarkably improved
B16 melanoma [2]; Mus musculus, B16, 72 h, 75 μM, single use, 3 days, control = 100%
  activity at 75 µM: 71.3%
B16 melanoma [2]
  melanin production suppressive effect / whitening effect when combined as component (B): improved

## CCCCCCc1ccc(O)cc1O [rcinol, 4-hexylresorcinol]
B16 melanoma [1]; 12.5 μM
  cell viability rate (single): 94.3%
B16 melanoma [1]; combined with (A) N-Ac-CP2Et
  safety when combined as component (B): remarkably improved
B16 melanoma [2]; Mus musculus, B16, 72 h, 12.5 μM, single use, 3 days, control = 100%
  activity at 12.5 µM: 66.2%
B16 melanoma [2]
  melanin production suppressive effect / whitening effect when combined as component (B): improved

## NC[C@H]1CC[C@H](C(=O)O)CC1 [tranexamic acid, trans-4-(aminomethyl)-cyclohexanecarboxylic acid]
B16 melanoma [1]; 10 mM
  cell viability rate (single): 93.1%
B16 melanoma [1]; combined with (A) N-Ac-CP2Et
  safety when combined as component (B): remarkably improved
B16 melanoma [2]; Mus musculus, B16, 72 h, 10 mM, single use, 3 days, control = 100%
  activity at 10000 µM: 100%
B16 melanoma [2]
  melanin production suppressive effect / whitening effect when combined as component (B): extremely remarkably improved
